Source: US12569495B2, “Inhibitors of porcine reproductive and respiratory syndrome virus” (UNIVERSITY OF CONNECTICUT, priority 2020, dated 2026)

Assays:
[1] = target: T1, protein-protein interactions (PPI) between CD163-SRCR5 domain and PRRSV GP2a protein (Sus scrofa, UniProt Q2VL90); test: BiFC assay between SRCR5-VN and GP2a-VC proteins; assay type: cell-based, porcine CD163; PRRSV; conditions: for inhibitory function in BiFC assay compared with B7: methyl and/or fluoro groups removed from the benzenesulfonamide moiety; for inhibition of CD163-SRCR5/GP2a PPI in the BiFC assay, B7 analogues: HEK293T cells, DMSO as Ctrl, concentration not given
T1 construct: The amplified cDNA fragments of SRCR2 or SRCR5 were subcloned into the pBiFC-VN155(I152L) vector; Myc tag (from vector backbone pMyc-CMV); expressed in transfected cells; host or cells: HEK293T
Source text: The N-terminus and C-terminus of the truncated Venus-I152L were inserted into vector backbone pMyc-CMV and pCMV-HA, constituting commercial plasmids pBiFC-VN155(I152L) and pBiFC-VC155, respectively (Addgene, Watertown, MA, USA). See Kodama and Hu, Biotechniques 49:793-805 (2010). cDNA fragments for the scavenger receptor cysteine-rich domain 2 (SRCR2) and SRCR5 of porcine CD163 receptor, and for PRRSV glycoproteins GP2a and GP4 were amplified by RT-PCR. The amplified cDNA fragments of SRCR2 or SRCR5 were subcloned into the pBiFC-VN155(I152L) vector digested with EcoRI/BglII. For constructions of GP2a and GP4 fusion proteins, cDNA fragments encoding GP2a or GP4 were subcloned into the pBiFC-VC155 vector digested with EcoRI/BglII. All plasmid clones were verified by DNA Sanger sequencing.
HEK293T cells cultured in 12-well plates were transfected with appropriate plasmids for each BiFC assay using FuGENE® 6 (Promega, Madison, WI, USA). After 5 h, various concentrations of chemical compounds were added to the culture media. DMSO was used as the vehicle control. Fluorescence images of treated cells at 24 h after plasmid transfection were captured using an inverted Nikon fluorescence microscope. Fluorescence intensity of treated cells was measured by ImageJ.
Using the previously described BiFC vector based on the fragmented venus protein (VN-155[I152L], hereafter named VN) and (VC-155, hereafter named VC), fusion protein constructs were established between the porcine CD163 protein SRCR5 or SRCR2 domain and VN, and between the PRRSV minor glycoproteins (GP2a or GP4) and VC (FIG. 1A, 2). See Kodama et al., Biotechniques 49(5): 793-805 (2010). These plasmids were co-expressed in HEK293T cells to evaluate the PPIs between the SRCR5 domain and GP2a or GP4.
The BiFC assays was tested to determine whether it could identify small molecules with potential to block the protein-protein interactions between CD163 and PRRSV. A customized virtual screen of a library of commercially available small molecules was performed with the AtomNet® model at a region centered around R561 (FIG. 3) based on the available 3-D protein structure of porcine CD163-SRCR5 domain, and 74 compounds predicted to target this potential binding site were procured. Ma et al., J. Virol. 91(3): e01897-16 (2017). These compounds were tested using the BiFC assay, to evaluate their ability to inhibit the PPI between GP2a and SRCR5. Plasmids were co-transfected in HEK293T cells, 4 h later, compounds were individually administered to cells at 5 μM. Twenty-four hours later, images were taken under a fluorescence microscope and the fluorescence quantified. […] Until these studies, there has been no known biological activity reported for compound B7.

[2] = tested on: PRRSV strain VR-2332; test: PRRSV titration assay of culture media of infected PAMs; assay type: cell-based; conditions: 15 μM; for log reduction of viral titer: pre- and post-inoculation treatment; for inhibitory function in PRRSV infection assay compared with B7: qRT-PCR and titration (FIG. 7B, 7C)
Method: (§1) For PRRSV infection of PAM cells, PAMs were seeded one day prior to infection. […] Cells were inoculated with VR-2332, SDSU73, NADC30 or Lelystad PRRSV at MOI=0.1 for 1 h. The 24 h cell medium supernatant was stored at −80° C. until use.
For PRRSV titration assay, MARC145 cells were seeded in 48-well plates and grew to ˜80% density before inoculation. Viral supernatants were prepared by 10-fold serial dilution, and 100 μl of the dilutions was added per well in six replicates. Inocula were removed from cells after 2 h and replaced with 0.5 mL of DMEM supplemented with 2% FBS, 2 mM glutamine, 0.1 mM MEM non-essential amino acids, 50 U/mL penicillin, and 50 μg/mL streptomycin (Invitrogen). Cells were cultured at 37° C. for 6 days and any cytopathic effects were observed and recorded. The PRRSV titer was calculated using the Reed and Muench method and expressed as median tissue culture infectious dose (TCID50/mL). Reed and Muench, Am. J. Epidemiol. 27(3): 493-497 (1938).

[3] = tested on: PRRSV strain VR-2332; test: qRT-PCR for PRRSV RNA in infected PAMs; assay type: cell-based; conditions: 15 μM; VR-2332; 24 h
Method: Total RNA was extracted from PAMs infected with PRRSV using RNeasy Mini Kit (Qiagen, Germantown, MD) according to the manufacturer's instruction. RNA concentrations were measured using a Nanodrop spectrophotometer (Thermo Fisher Scientific). GAPDH was used as a housekeeping gene for gene expression normalization. Data were processed with the software associated with ABI 7500.
as §1

T1 sequence (Q2VL90 477-577): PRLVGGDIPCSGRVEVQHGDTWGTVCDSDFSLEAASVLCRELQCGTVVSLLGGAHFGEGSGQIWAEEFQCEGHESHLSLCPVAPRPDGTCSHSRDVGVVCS

SMILES: O=S(=O)(Nc1nc2ccccc2nc1Nc1ccc(Cl)c(S(=O)(=O)N2CCOCC2)c1)c1ccccc1 [Compound B7-A1, N-[3-(4-chloro-3-morpholin-4-ylsulfonylanilino)quinoxalin-2-yl] benzenesulfonamide]
- inhibitory function in BiFC assay compared with B7 [1]: weakened the compound's inhibitory function
- log reduction of viral titer ([2]; 24 h): 2.2 log
- inhibitory function in PRRSV infection assay compared with B7 [2]: weakened the compound's inhibitory function

SMILES: Cc1ccccc1S(=O)(=O)Nc1nc2ccccc2nc1Nc1ccc(S(=O)(=O)N2CCOCC2)cc1 [Compound B7-A2, 2-methyl-N-[3-(4-morpholin-4-ylsulfonylanilino)quinoxalin-2-yl] benzenesulfonamide]
- inhibition of CD163-SRCR5/GP2a PPI in the BiFC assay, B7 analogues [1]: does not eliminate these compounds' ability to inhibit
- inhibitory function in BiFC assay compared with B7 [1]: weakened the compound's inhibitory function
- log reduction of viral titer ([2]; 24 h): 2.4 log
- inhibitory function in PRRSV infection assay compared with B7 [2]: weakened the compound's inhibitory function

SMILES: O=S(=O)(Nc1nc2ccccc2nc1Nc1cccc(S(=O)(=O)N2CCOCC2)c1)c1ccccc1 [Compound B7-A3, N-[3-(3-morpholin-4-ylsulfonylanilino)quinoxalin-2-yl] benzenesulfonamide]
- inhibitory function in BiFC assay compared with B7 [1]: weakened the compound's inhibitory function
- log reduction of viral titer ([2]; 24 h): 1.2 log
- inhibitory function in PRRSV infection assay compared with B7 [2]: weakened the compound's inhibitory function

SMILES: Cc1ccc(S(=O)(=O)Nc2nc3ccccc3nc2Nc2cccc(S(=O)(=O)N3CCCCC3)c2)cc1 [Compound B7-A4, 4-methyl-N-[3-(3-piperidin-1-ylsulfonylanilino)quinoxalin-2-yl] benzenesulfonamide]
- inhibition of CD163-SRCR5/GP2a PPI in the BiFC assay, B7 analogues [1]: does not eliminate these compounds' ability to inhibit
- log reduction of viral titer ([2]; 24 h): 2.8 log

SMILES: Cc1ccc(S(=O)(=O)Nc2nc3ccccc3nc2N2CCOCC2)cc1 [Compound B7-A5, 4-methyl-N-(3-morpholinoquinoxalin-2-yl)benzenesulfonamide]
- PRRSV RNA level in treated PAMs (qRT-PCR), B7 analogues [3]: failed to inhibit PRRSV RNA level
- inhibition of CD163-SRCR5/GP2a PPI in the BiFC assay, B7 analogues [1]: completely blocked their ability to inhibit

SMILES: Cc1ccccc1S(=O)(=O)Nc1nc2ccccc2nc1N1CCOCC1 [Compound B7-A6, 2-methyl-N-(3-morpholin-4-ylquinoxalin-2-yl) benzenesulfonamide]
- inhibition of CD163-SRCR5/GP2a PPI in the BiFC assay, B7 analogues [1]: completely blocked their ability to inhibit

SMILES: Nc1cccc(S(=O)(=O)N2CCOCC2)c1 [Compound B7-A7, 3-(morpholinosulfonyl)aniline]
- inhibition of PRRSV infection of PAMs (titration of culture media), B7 analogues ([2]; 24 h): none of these 2 compounds inhibited PRRSV infection of PAMs
